Broadly, the pIC50 is the IC50 on a negative log10 scale, so that one unit is a factor of ten. Read a high pIC50 as a small IC50.

Experimental findings from patent publication US9896445B2, “Heterocyclic inhibitors of ERK1 and ERK2 and their use in the treatment of cancer” (Asana Biosciences, LLC, priority 2015, dated 2018) are described below.

pIC50: −log10 of the molar value.

One experiment deals with T1, ERK2 (Homo sapiens, UniProt P28482).
T1 construct: purchased Jubilant Biosys
As to the kind of experiment: ERK2 HTRF (biochemical) assay. Conditions: HTRF. As to the method:
(§1) ERK1 and ERK2 HTRF (Biochemical) Assays
These assays employed a homogeneous time resolved fluorescence (HTRF) technique. The compounds were serially diluted by half-log with concentrations ranging from 0.0005 to 10 uM in the assay buffer (50 mM Tris pH=7.5, 1 mM EGTA, 2 mM DTT, 10 mM MgCl2, 0.1% Tween-20) and 20 uL of substrate-ATP mix [1 uM Biotin-LC-Myelin Basic Protein (MBP) derivatized Peptide (Anaspec)-24 uM ATP (Sigma)] was added to each well of the assay plate. Then 10 uL of enzyme mix [25 nM ERK1 or ERK2 (Jubilant Biosys) in assay buffer] was added to each well. The plate was incubated at room temperature for 60 min with shaking. The HTRF mix [625 nM LANCE® Ultra Europium-anti-phospho-MBP (Perkin Elmer) and 2 nM Phycolink® Streptavidin-Allophycocyanin (SA-APC) (Prozyme) in HTRF buffer (50 mM Tris-HCl pH=7.5, 100 mM NaCl, 0.1% BSA, 0.05% Tween20, 0.5 mM EDTA)] was prepared and 75 uL of this mix was added to the HTRF plate. After incubation for 60 min at room temperature, 10 uL of the reaction mixture was transferred to the HTRF assay plate and incubated for 45 min at room temperature with shaking. Plate was read using Pherastar in HTRF mode (excitation 337 nm, emission 665 & 620 nm). The IC50 values (half maximal inhibitory concentration values) were subsequently determined using a sigmoidal dose-response curve (variable slope) in GraphPad Prism® 5 software.
(In general: In TR-FRET formats the signal depends on donor and acceptor labels being close together.)

For a further experiment, the target named is T2, ERK1 (Homo sapiens, UniProt P27361).
T2 construct: purchased Jubilant Biosys
T2 sequence (P27361 whole entry): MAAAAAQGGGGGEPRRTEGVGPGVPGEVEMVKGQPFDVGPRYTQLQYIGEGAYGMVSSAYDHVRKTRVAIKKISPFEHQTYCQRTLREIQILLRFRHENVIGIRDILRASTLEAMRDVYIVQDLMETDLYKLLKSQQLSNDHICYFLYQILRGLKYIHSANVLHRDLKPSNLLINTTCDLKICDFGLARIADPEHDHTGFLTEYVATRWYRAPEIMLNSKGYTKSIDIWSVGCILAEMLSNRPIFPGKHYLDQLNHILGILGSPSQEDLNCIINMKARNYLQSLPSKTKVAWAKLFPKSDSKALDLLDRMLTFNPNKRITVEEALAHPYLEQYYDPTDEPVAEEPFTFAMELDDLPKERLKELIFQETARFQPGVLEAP
As to the kind of experiment: ERK1 HTRF (biochemical) assay. Conditions: HTRF. As to the method:
as §1
These assays employed a homogeneous time resolved fluorescence (HTRF) technique. […] The plate was incubated at room temperature for 60 min with shaking. […] The IC50 values (half maximal inhibitory concentration values) were subsequently determined using a sigmoidal dose-response curve (variable slope) in GraphPad Prism® 5 software.

T1 sequence (P28482 whole entry): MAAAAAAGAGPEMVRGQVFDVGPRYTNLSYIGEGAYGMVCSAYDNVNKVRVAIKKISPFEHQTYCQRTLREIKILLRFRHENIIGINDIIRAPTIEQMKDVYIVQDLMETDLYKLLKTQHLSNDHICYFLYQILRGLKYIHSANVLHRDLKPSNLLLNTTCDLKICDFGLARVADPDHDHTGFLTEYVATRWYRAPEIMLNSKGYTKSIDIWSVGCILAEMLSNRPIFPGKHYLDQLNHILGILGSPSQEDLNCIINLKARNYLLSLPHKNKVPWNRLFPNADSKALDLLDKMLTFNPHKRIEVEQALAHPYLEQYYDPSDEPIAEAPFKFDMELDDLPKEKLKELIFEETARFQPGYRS

For `O=C(Nc1cnn(-c2ccnc(NC3CC3)n2)c1)N[C@H](CO)c1cccc(Cl)c1` [Compound 6, (S)-1-(1-(3-chlorophenyl)-2-hydroxyethyl)-3-(1-(2-(cyclopropyl-amino)pyrimidin-4-yl)-1H-pyrazol-4-yl)urea], the negative-log IC50 (pIC50) at ERK2 is no less than 7.30; at ERK1, greater than 7.30.

With `O=C(Nc1cnn(-c2ccnc(Nc3ccccc3Cl)n2)c1)N[C@H](CO)c1ccccc1` [Compound 7, (S)-1-(1-(2-((2-chlorophenyl)amino)pyrimidin-4-yl)-1H-pyrazol-4-yl)-3-(2-hydroxy-1-phenylethyl)urea], the pIC50 against ERK2 and against ERK1 was 7.00 to 7.30 each time.

In the case of `O=C(Nc1cnn(-c2ccnc(Nc3ccccc3)n2)c1)N[C@H](CO)c1cccc(Cl)c1` [Compound 12, (S)-1-(1-(3-chlorophenyl)-2-hydroxyethyl)-3-(1-(2-(phenyl-amino)pyrimidin-4-yl)-1H-pyrazol-4-yl)urea], the results for the pIC50 on ERK2 and on ERK1 were no less than 7.30 and greater than 7.30, respectively.

As for `CC(C)C[C@H](CO)Nc1nccc(-n2cc(NC(=O)N[C@H](CO)c3cccc(Cl)c3)cn2)n1` [Compound 13, 1-((S)-1-(3-chlorophenyl)-2-hydroxyethyl)-3-(1-(2-(((R)-1-hydroxy-4-methylpentan-2-yl)amino)pyrimidin-4-yl)-1H-pyrazol-4-yl)urea], the pIC50 against ERK2 and at ERK1 was 6.30 to 7.00 throughout.

Turning to `O=C(Nc1cnn(-c2ccnc(N[C@H]3CC[C@H](O)CC3)n2)c1)N[C@H](CO)c1cccc(Cl)c1` [Compound 14, 1-((S)-1-(3-chlorophenyl)-2-hydroxyethyl)-3-(1-(2-((trans-4-hydroxycyclohexyl)amino)pyrimidin-4-yl)-1H-pyrazol-4-yl)urea], the pIC50 against ERK2 and at ERK1 was 6.30 to 7.00 in each case.

For `O=C(Nc1cnn(-c2ccnc(NC3CC3)n2)c1)NC(CO)c1cccc(Cl)c1` (stereo not drawn) [Compound 16, 1-(1-(3-chlorophenyl)-2-hydroxyethyl)-3-(1-(2-(cyclopropyl-amino)pyrimidin-4-yl)-1H-pyrazol-4-yl)urea], the results for the pIC50 against ERK2 and at ERK1 were 7.00 to 7.30 and 6.30 to 7.00, respectively.

Turning to `CN(C(=O)Nc1cnn(-c2ccnc(NC3CC3)n2)c1)[C@H](CO)c1ccccc1` [Compound 18, (S)-3-(1-(2-(cyclopropylamino)pyrimidin-4-yl)-1H-pyrazol-4-yl)-1-(2-hydroxy-1-phenylethyl)-1-methylurea], the pIC50 against ERK2 is 6.30 to 7.00; at ERK1 it was greater than 7.30.

On to `O=C(Nc1cnn(-c2ccnc(Nc3ccc(F)cc3Cl)n2)c1)N[C@H](CO)c1cccc(Cl)c1` [Compound 20, (S)-1-(1-(2-((2-chloro-4-fluorophenyl)amino)pyrimidin-4-yl)-1H-pyrazol-4-yl)-3-(1-(3-chlorophenyl)-2-hydroxyethyl)urea], for which the pIC50 was no less than 7.30 at ERK2 and greater than 7.30 at ERK1.

In the case of `O=C(Nc1cnn(-c2ccnc(Nc3ccc4c(c3)OCO4)n2)c1)N[C@H](CO)c1cccc(Cl)c1` [Compound 21, (S)-1-(1-(2-(benzo[d][1,3]dioxol-5-ylamino)-pyrimidin-4-yl)-1H-pyrazol-4-yl)-3-(1-(3-chlorophenyl)-2-hydroxyethyl)urea], the pIC50 was no less than 7.30 on ERK2 and greater than 7.30 against ERK1.

On to `CN1CCN(c2ccc(Nc3nccc(-n4cc(NC(=O)N[C@H](CO)c5cccc(Cl)c5)cn4)n3)cc2)CC1` [Compound 22, (S)-1-(1-(3-chlorophenyl)-2-hydroxyethyl)-3-(1-(2-((4-(4-methylpiperazin-1-yl)-phenyl)amino)pyrimidin-4-yl)-1H-pyrazol-4-yl)urea], for which the results for the negative logarithm of the IC50 (pIC50) against ERK2 and on ERK1 were 7.00 to 7.30 and 6.30 to 7.00, respectively.

Take `Cc1cnc(Nc2cccnc2)nc1-n1cc(NC(=O)N[C@H](CO)c2cccc(Cl)c2)cn1` [Compound 23, (S)-1-(1-(3-chlorophenyl)-2-hydroxyethyl)-3-(1-(5-methyl-2-(pyridin-3-yl-amino)pyrimidin-4-yl)-1H-pyrazol-4-yl)urea]: the pIC50 against ERK2 was no less than 7.30; against ERK1, greater than 7.30.

Regarding `Cc1cnc(NC2CC2)nc1-n1cc(NC(=O)NC(CO)c2cccc(Cl)c2)cn1` (stereo not drawn) [Compound 28, 1-(1-(3-chloro-phenyl)-2-hydroxy-ethyl)-3-(1-(2-(cyclopropyl-amino)-5-methylpyrimidin-4-yl)-1H-pyrazol-4-yl)urea], the negative logarithm of the IC50 (pIC50) at ERK2 and against ERK1 was 7.00 to 7.30 throughout.

As to `Cc1cnc(Nc2ccc(F)cc2Cl)nc1-n1ccc(C(=O)N[C@H](CO)c2cccc(Cl)c2)c1` [Compound 29, (S)-1-(2-((2-Chloro-4-fluorophenyl)amino)-5-methylpyrimidin-4-yl)-N-(1-(3-chlorophenyl)-2-hydroxyethyl)-1H-pyrrole-3-carboxamide], the pIC50 at ERK2 was no less than 7.30; on ERK1, greater than 7.30.

As for `O=C(Nc1cnn(-c2nc(NC3CC3)ncc2F)c1)N[C@H](CO)c1cccc(Cl)c1` [Compound 30, (S)-1-(1-(3-chlorophenyl)-2-hydroxyethyl)-3-(1-(2-(cyclopropyl-amino)-5-fluoro-pyrimidin-4-yl)-1H-pyrazol-4-yl)urea], the pIC50 at ERK2 is no less than 7.30; against ERK1, greater than 7.30.

For `Cc1cnc(Nc2ccc(F)cc2Cl)nc1-n1ccc(C(=O)NC(CO)c2cccc(Cl)c2)c1` (stereo not drawn) [Compound 31, 1-(2-((2-chloro-4-fluorophenyl)amino)-5-methyl-pyrimidin-4-yl)-N-(1-(3-chlorophenyl)-2-hydroxyethyl)-1H-pyrrole-3-carboxamide], the values for the pIC50 against ERK2 and on ERK1 were no less than 7.30 and greater than 7.30, respectively.

As for `Cc1cnc(Nc2ccc(F)cc2Cl)nc1-n1ccc(C(=O)NC(CO)c2ccccc2)c1` (stereo not drawn) [Compound 32, 1-(2-((2-chloro-4-fluorophenyl)amino)-5-methyl-pyrimidin-4-yl)-N-(2-hydroxy-1-phenylethyl)-1H-pyrrole-3-carboxamide], the pIC50 at ERK2 is no less than 7.30; on ERK1, greater than 7.30.

Turning to `Cc1cnc(Nc2ccc(F)cc2Cl)nc1-n1cc(C(=O)N[C@H](CO)c2cccc(Cl)c2)cn1` [Compound 35, (S)-1-(2-((2-chloro-4-fluoro-phenyl)amino)-5-methylpyrimidin-4-yl)-N-(1-(3-chloro-phenyl)-2-hydroxy-ethyl)-1H-pyrazole-4-carboxamide], the values for the pIC50 against ERK2 and against ERK1 were no less than 7.30 and greater than 7.30, respectively.

For `Cc1cnc(Nc2ccc(F)cc2Cl)nc1-n1cc(NC(=O)NC(CO)c2cccc(Cl)c2)cn1` (stereo not drawn) [Compound 36, 1-(1-(2-((2-chloro-4-fluorophenyl)-amino)-5-methyl-pyrimidin-4-yl)-1H-pyrazol-4-yl)-3-(1-(3-chlorophenyl)-2-hydroxyethyl)urea], the figures for the pIC50 at ERK2 and against ERK1 were no less than 7.30 and 6.30 to 7.00, respectively.

Turning to `Cc1cnc(Nc2ccc3c(c2)OCO3)nc1-n1cc(NC(=O)NC(CO)c2cccc(Cl)c2)cn1` (stereo not drawn) [Compound 37, 1-(1-(2-(benzo[d][1,3]dioxol-5-ylamino)-5-methylpyrimidin-4-yl)-1H-pyrazol-4-yl)-3-(1-(3-chlorophenyl)-2-hydroxyethyl)urea], the results for the pIC50 at ERK2 and on ERK1 were no less than 7.30 and 6.30 to 7.00, respectively.

Regarding `C#Cc1cccc(Nc2nccc(-n3cc(NC(=O)N[C@H](CO)c4cccc(Cl)c4)cn3)n2)c1` [Compound 38, (S)-1-(1-(3-chlorophenyl)-2-hydroxyethyl)-3-(1-(2-((3-ethynyl-phenyl)amino)pyrimidin-4-yl)-1H-pyrazol-4-yl)urea], the pIC50 against ERK2 was no less than 7.30; at ERK1, greater than 7.30.

Consider `Cc1cnc(NC2CC2)nc1-n1cc(C(=O)N[C@H](CO)c2cccc(Cl)c2)cn1` [Compound 39, (S)-N-(1-(3-chlorophenyl)-2-hydroxyethyl)-1-(2-(cyclopropylamino)-5-methylpyrimidin-4-yl)-1H-pyrazole-4-carboxamide], for which the figures for the pIC50 on ERK2 and against ERK1 were no less than 7.30 and 7.00 to 7.30, respectively.

Turning to `Cc1cnc(NC2CC2)nc1-n1cc(C(=O)NC(CO)c2cccc(Cl)c2)cn1` (stereo not drawn) [Compound 40, N-(1-(3-chlorophenyl)-2-hydroxyethyl)-1-(2-(cyclopropyl-amino)-5-methylpyrimidin-4-yl)-1H-pyrazole-4-carboxamide], the pIC50 at ERK2 and against ERK1 was 7.00 to 7.30 in each case.

In the case of `Cc1cnc(Nc2ccc3c(c2)OCO3)nc1-n1cc(C(=O)NC(CO)c2cccc(Cl)c2)cn1` (stereo not drawn) [Compound 41, 1-(2-(benzo[d][1,3]dioxol-5-ylamino)-5-methylpyrimidin-4-yl)-N-(1-(3-chloro-phenyl)-2-hydroxy-ethyl)-1H-pyrazole-4-carboxamide], the pIC50 on ERK2 is no less than 7.30; against ERK1 it was 6.30 to 7.00.

Consider `Cc1cnc(Nc2ccc3c(c2)OCO3)nc1-n1ccc(C(=O)NC(CO)c2cccc(Cl)c2)c1` (stereo not drawn) [Compound 42, 1-(2-(benzo[d][1,3]dioxol-5-ylamino)-5-methylpyrimidin-4-yl)-N-(1-(3-chloro-phenyl)-2-hydroxy-ethyl)-1H-pyrrole-3-carboxamide], for which the pIC50 against ERK2 is no less than 7.30; at ERK1 it was greater than 7.30.
